Data set [1] in a line: Storage stress-tests at 80° C. in closed vials (CAD-HPLC, 1H-NMR, XRPD). The format is physicochemical. As to the method: In order to obtain insight regarding thermal stability of the four crystalline IFG salts, storage stress-tests at 80° C. over several days were conducted. A sample of the free base (SP245-FB-P4), a fumarate sample (SP245-FUM-P5), a D-tartrate sample (SP245-DTA-P7), an L-tartrate sample (SP245-LTA-P5) and an oxalate sample SP245-OXA-P2 were stored at 80° C. for one, three and seven days in closed vials. Samples were tested by CAD and ^1H-NMR.
CAD-HPLC was performed in order to identify the possible adducts or thermal degradation product that could be generated upon storage under the given conditions. All samples were examined by CAD-HPLC; however, no considerable changes were observed between the starting materials and the stored samples. […] In addition, XRPD was carried out for the seven-day stored crystalline salt samples and the XRPD patterns before and after storage were essentially identical.
NMR spectroscopy was conducted on the seven-day stored samples.

The subject of data set [2] is mutant GCase. Particulars: in vitro, fibroblasts from Gaucher patients; cited from earlier work.
Data set [3] can be described thus: Dynamic vapor sorption (DVS). The format is physicochemical. Particulars: for additional weight gain upon storage at 95% RH: holding at 95% RH; for mass gain until 95% RH: scanning up to 95% RH; for gain in weight when increasing the RH from 0 to 80%: RH 0 to 80%. An excerpt: The behavior of the IFG quinate salt, sample SP245-QNC-P2, was investigated in the presence of variable water vapor pressure using DVS measurement. The result from the DVS test is presented in FIG. 6 and FIG. 6B as the DVS isotherm of sample SP245-QNC-P2: the change of relative sample weight (red curve) and relative humidity (blue curve) as a function of time.
The SP245-QNC-P2 salt prepared in example 1 is hygroscopic at high relative humidity; i.e., above about 80% RH.
The effect of changes in relative humidity on the IFG fumarate sample SP245-FUM-P4 was studied using DVS.
The IFG fumarate salt is hygroscopic at relative humidities above about 80%.
The effect of changes in relative humidity on the IFG oxalate salt sample SP245-OXA-P1 was studied using DVS.
The oxalate salt is hygroscopic above 80% RH.
The effect of changes in relative humidity on the crystalline IFG tartrate salt sample SP245-DTA-P3 was studied using DVS.

Data set [4] is described as follows: TG-FTIR thermogram. The format is physicochemical. As to the method: The obtained crystalline form SP245-QNC-P2 is anhydrous/non-solvated. […] Decomposition is observable above 200° C.
The fumarate salt is a solvent and water-free form. Decomposition is observable above 150° C.

Here are results for six compounds from patent US12286400B2, “Isofagomine salts, methods of use and formulations” (TAKEDA PHARMACEUTICAL COMPANY LIMITED, priority 2019, dated 2025).

Where only a bound is given, the exact number is not on record here.

For `OC[C@H]1CNC[C@@H](O)[C@@H]1O` [SP245-FB-P4, (3R,4R,5R)-3,4-dihydroxy-5-hydroxymethylpiperidine, reference compound], the “CAD-HPLC Area %” value in data set [1] (80° C., closed vial, 1 day) amounted to 80.2%; in data set [1] (80° C., closed vial, 3 days), 80.6%; in data set [1] (80° C., closed vial, 7 days), 80.4%; in data set [1] (starting material), 81.1%. Besides, the “NMR after storage compared to the non-stressed sample” value in data set [1] (80° C., seven days) was “several additional NMR signals were observed after storage”. Also, in data set [2], the “effect on activity of mutant GCase” value was “increase the activity of mutant GCase”.

Take `O=C(O)C(O)C(O)C(=O)O.OC[C@H]1CNC[C@@H](O)[C@@H]1O` [SP245-LTA-P5, IFG L-(+)-tartrate]: the “CAD-HPLC Area %” value in data set [1] (80° C., closed vial, 1 day) is 83.9%; in data set [1] (80° C., closed vial, 3 days) it was 84.1%; in data set [1] (80° C., closed vial, 7 days) it was 85.3%; in data set [1] (starting material), 84.3%.

Take “isofagomine D-(−)-tartrate [SP245-DTA-P3]”: in data set [3] (DVS), the “relative humidity up to which the salt is not hygroscopic” value is on record as 70%. Besides, the “mass change upon increasing the relative humidity from 0% to 70%” value in data set [3] (DVS, RH 0% to 70%) is listed as “No mass change”. In data set [3] (DVS), the “additional weight gain upon storage at 95% RH” value turned out to be 70%. In addition, the “mass gain until 95% RH” value in data set [3] (DVS) is recorded as 32%. In addition, the “CAD-HPLC Area %” value in data set [1] (80° C., closed vial, 1 day) is recorded as 85%; in data set [1] (80° C., closed vial, 3 days) it was 85.1%; in data set [1] (80° C., closed vial, 7 days), 85.6%; in data set [1] (starting material) it was 86.3%.

As for isofagomine fumarate [SP245-FUM-P4], in data set [3] (DVS), the “relative humidity above which the salt is hygroscopic” value was “about 80 % RH”, the “gain in weight when increasing the RH from 0 to 80%” value is given as “no considerable gain in sample mass”, the “additional weight gain upon storage at 95% RH” value is on record as 47% and the “mass gain until 95% RH” value stood at 11%. For the same compound, the “weight loss when decreasing the relative humidity from 50 to 0% RH” value in data set [3] (DVS, RH 50 to 0%) is under 1 weight %. Moreover, in data set [3] (DVS, second cycle), the “gain in weight at 95% RH compared to the first cycle” value is on record as 5%. For the same compound, the “XRPD of sample recovered after DVS measurement” value (from here on “XRPD of sample recovered”) in data set [3] was “correspond to the sample SP245-FUM-P4 used as starting material”. Moreover, the Decomposition observable above entry in data set [4] is “above 150 °C”. Also, the “CAD-HPLC Area %” value in data set [1] (80° C., closed vial, 1 day) amounted to 86.9%. Also, in data set [1] (80° C., closed vial, 3 days), the “CAD-HPLC Area %” value was 87.1%. Also, the “CAD-HPLC Area %” value in data set [1] (80° C., closed vial, 7 days) is given as 87.8%. Moreover, the “CAD-HPLC Area %” value in data set [1] (starting material) was determined as 87.9%.

Take isofagomine oxalate [SP245-OXA-P1]: the “relative humidity above which the salt is hygroscopic” value in data set [3] (DVS) is 80 % RH. Also, the “gain in weight when increasing the RH from 0 to 75%” value in data set [3] (DVS, RH 0 to 75%) is on record as “no gain in weight”. Further, the “weight change when decreasing the relative humidity from 50 to 0%” value in data set [3] (DVS, RH 50 to 0%) was “No significant loss in weight”. The “additional weight gain upon storage at 95% RH” value in data set [3] (DVS) came to 90%. Moreover, in data set [3] (DVS), the “mass gain until 95% RH” value amounted to 30%. In addition, the “XRPD of sample recovered” value in data set [3] is reported as “corresponds to the starting material”. Further, the “CAD-HPLC Area %” value in data set [1] (80° C., closed vial, 1 day) was found to be 83.6%; in data set [1] (80° C., closed vial, 3 days), 82.9%; in data set [1] (80° C., closed vial, 7 days), 83.6%; in data set [1] (starting material), 85.9%.

For the compound isofagomine quinate [SP245-QNC-P2], in data set [3] (DVS), the “relative humidity above which the salt is hygroscopic” value was “about 80 % RH”, the “gain in weight when increasing the RH from 0 to 80%” value is on record as “no gain in weight”, the “additional weight gain upon storage at 95% RH” value is given as 70% and the “mass gain until 95% RH” value was found to be 20%. Moreover, the “weight change when decreasing the relative humidity from 50 to 0%” value in data set [3] (DVS, RH 50 to 0%) was “No significant loss in weight”. The “XRPD of sample recovered” value in data set [3] was “no form change was observed”. The Decomposition observable above entry in data set [4] was “above 200 °C”.
